For data set [1] the following is noted: Table S1; ref Hansch, Leo, Hoekman, Exploring QSAR, 1995; cited from earlier work.
The conditions of data set [2]: cited from earlier work.
On the set-up of data set [3]: method as in PMID 31414105, PMID 29999054. The note with it: series B, reversed-phase HPLC; cited from earlier work.
Data set [4] can be described thus: 19F NMR-based octanol/water logP determination. The note with it: for logP: n-octanol/water; for logP / logP (individual measurement): octanol/water, 25 °C, 19F NMR.
The nature of data set [5]: physchem.
For data set [6] the following is noted: SMD implicit solvation, MN15; values taken from the literature; cited from earlier work.
Data set [7] is described as follows: Shake-flask lipophilicity (logP, logD7.4) of literature examples. The format is physicochemical. The note with it: geminal dimethyl 1 to cyclopropyl 2.
Setting [8] is: logP (average logP), triplicate.
Setting [9] is: logP (individual measurement), single experiment.
The mark [10] stands for this setting: logP average with error (standard deviation), triplicate, column Error.

“And” between values parts separate entries of the source, which are not always exact repeats. Equal values may be shown once. Read-outs that look alike come from different tables or passages of the source.

On to `CCCCCCCO` [1-heptanol], for which, in data set [1], the “Experimental logP for selected nonfluorinated alkanols” value was 2.72.

With `CC(C)(C)CO` [2,2-dimethylpropan-1-ol], the “Experimental logP for selected nonfluorinated alkanols” value in data set [1] is recorded as 1.31.

Take `CCCCCC(C)O` (centres unmarked) [2-heptanol]: in data set [1], the “Experimental logP for selected nonfluorinated alkanols” value is reported as 2.31.

On to `CCCCC(C)O` (centres unmarked) [2-hexanol], for which the “Experimental logP for selected nonfluorinated alkanols” value in data set [1] is listed as 1.76.

As for `CCCCCCC(C)O` (centres unmarked) [2-octanol], in data set [1], the “Experimental logP for selected nonfluorinated alkanols” value is on record as 2.90.

Turning to `CCCC(O)CC` (centres unmarked) [3-hexanol], the “Experimental logP for selected nonfluorinated alkanols” value in data set [1] is 1.65.

Take `CC(C)C(C)O` (centres unmarked) [3-methyl-2-butanol]: the “Experimental logP for selected nonfluorinated alkanols” value in data set [1] is listed as 1.28.

Take `CCC(O)CC` [3-pentanol]: in data set [1], the “Experimental logP for selected nonfluorinated alkanols” value is 1.21.

In the case of `CCCC(O)CCC` [4-heptanol], the “Experimental logP for selected nonfluorinated alkanols” value in data set [1] was 2.22.

Turning to `CCCCC(O)CCC` (centres unmarked) [4-octanol], the “Experimental logP for selected nonfluorinated alkanols” value in data set [1] is recorded as 2.68.

With `C[C@@](CCN1Cc2cc(C#CC#C[C@H]3C[C@@H]3CO)cn2C1=O)(C(=O)NO)S(C)(=O)=O` [7a], the logD7.4 in data set [2] (pH 7.4) was 1.3.

Turning to `C[C@@](CCN1Cc2cc(C#CC#C[C@H]3C[C@]3(F)CO)cn2C1=O)(C(=O)NO)S(C)(=O)=O` [7b], the logD7.4 in data set [2] (pH 7.4) is 0.9.

In the case of `C[C@@](CCN1Cc2cc(C#CC#C[C@@H]3C[C@H]3CO)cn2C1=O)(C(=O)NO)S(C)(=O)=O` [7c], in data set [2] (pH 7.4), the logD7.4 is on record as 1.1.

As to `C[C@@](CCN1Cc2cc(C#CC#C[C@@H]3C[C@@]3(F)CO)cn2C1=O)(C(=O)NO)S(C)(=O)=O` [7d], the logD7.4 in data set [2] (pH 7.4) is recorded as 0.9.

Turning to `c1ccc(C2CC2)cc1` [B1], the logP result in data set [3] is on record as “+3.40”.

Take `F[C@@H]1[C@H](F)[C@@]1(F)c1ccccc1` [B2]: in data set [3], the logP result is recorded as “+2.56”.

Turning to `FC1(F)CC1c1ccccc1` (centres unmarked) [B6], the logP entry in data set [3] is recorded as “+2.91”.

In the case of `FC1(F)CC1(F)c1ccccc1` (centres unmarked) [B7], the logP result in data set [3] is “+2.94”.

`CN(C)CCCCc1ccc(C2COC2)cc1` [C1]: in data set [2] (pH 7.4), the logD7.4 entry is “–0.1”.

For `CN(C)CCCCc1ccc(C2(F)COC2)cc1` [C2], the logD7.4 result in data set [2] (pH 7.4) is “–0.5”.

For the compound `CC(C)(F)CO` [D2, 2-fluoro-2-methylpropan-1-ol], in data set [4] (D2 vs G2), the “Δ logP branched vs linear” value came out at 0.16. Besides, the results for the logP in data set [4] (setting [8]), in data set [4] (setting [9]) and in data set [4] (setting [10]) were 0.1, 0.11 and 0.104, respectively. Moreover, the “logP (individual measurement)” value in data set [4] (single experiment) is given as “+0.10”.

As to `CC(CO)CF` (centres unmarked) [D3, 3-fluoro-2-methylpropan-1-ol], the log partition coefficient (logP) in data set [5] (logP (average logP)) was determined as 0.29; in data set [5] (logP (individual measurement)), 0.28; in data set [5] (logP average with error (standard deviation)) it was 0.289.

Turning to `CC(CO)C(F)F` (centres unmarked) [D4, 3,3-difluoro-2-methylpropan-1-ol], the logP in data set [4] (setting [8]) was 0.58; in data set [4] (setting [9]), 0.583; in data set [4] (setting [10]) it was 0.583. Also, the “logP (individual measurement)” value in data set [4] (single experiment) was “+0.576 and +0.589”.

Take `CC(CO)C(F)(F)F` (centres unmarked) [D5, 3,3,3-trifluoro-2-methylpropan-1-ol]: the logP amounted to 0.98 in data set [4] (setting [8]), 0.977 in data set [4] (setting [9]) and 0.978 in data set [4] (setting [10]). Besides, the “logP (individual measurement)” value in data set [4] (single experiment) is “+0.978 and +0.979”.

On to `OCC1(F)CC1` [E2, (1-fluorocyclopropyl)methanol], for which the logP reduction in data set [4] (G9 to E2) was 0.72 logP units. Further, the logP in data set [4] (setting [8]) was -0.05; in data set [4] (setting [10]), -0.054. Besides, in data set [4] (single experiment), the “logP (individual measurement)” value is recorded as -0.06.

For `OCCC(F)CF` (centres unmarked) [G7, 3,4-difluorobutan-1-ol], the “logPtheor (DFT)” value in data set [6] was 1.06.

`OCCC(F)(F)CF` [G8]: the “logPtheor (DFT)” value in data set [6] is reported as 1.30.

As to `O=C(c1ccc(CN2CCOCC2)cc1)N1CCN(C2CC2)CC1` [compound 2], in data set [7], the ΔlogD7.4 entry was “+0.73” and the ΔlogP entry was “+0.34”.

Regarding `CN(C)CCCCc1ccc(C(C)(C)C)cc1` [compound 3], the logD7.4 in data set [2] (pH 7.4) is given as 2.5.

On to `CN(C)CCCCc1ccc(C2(C)COC2)cc1` [compound 4], for which, in data set [2] (shake-flask), the logD7.4 is recorded as -0.1 and the lipophilicity (logP) is recorded as 2.4.

As a reminder, the logP is the decadic logarithm of the partition coefficient of the neutral form, usually between octanol and water.

Source of the values: PMC7476584, “Lipophilicity trends upon fluorination of isopropyl, cyclopropyl and 3-oxetanyl groups” (Beilstein Journal of Organic Chemistry, 2020).
